Experiments:
Type in all cases: functional
[1] = tested on: Prevotella melaninogenica; test: Antimicrobial activity against Prevotella melaninogenica by agar dilution method in presence of 5% laked sheep blood
[2] = tested on: Paeniclostridium sordellii; test: Antimicrobial activity against Clostridium sordellii ATCC 9714 by agar dilution method in presence of 5% laked sheep blood; details: Paraclostridium sordellii
[3] = tested on: Sutterella wadsworthensis; test: Antimicrobial activity against Sutterella wadsworthensis ATCC 51579 by agar dilution method in presence of 5% laked sheep blood
[4] = tested on: Limosilactobacillus fermentum; test: Antimicrobial activity against Lactobacillus fermentum JCM 1173 by agar dilution method in presence of 5% laked sheep blood
Porphyromonas uenonis = test: Antimicrobial activity against Porphyromonas uenonis by agar dilution method in presence of 5% laked sheep blood
Fusobacterium sp. = test: Antimicrobial activity against Fusobacterium sp. by agar dilution method in presence of 5% laked sheep blood
Bacteroides fragilis [5] = test: Antimicrobial activity against Bacteroides fragilis ATCC 25285 by agar dilution method in presence of 5% laked sheep blood; details: NCTC 9343
Lactobacillus brevis = test: Antimicrobial activity against Lactobacillus brevis subsp. brevis JCM 1059 by agar dilution method in presence of 5% laked sheep blood; details: Levilactobacillus brevis
Odoribacter splanchnicus = test: Antimicrobial activity against Odoribacter splanchnicus by agar dilution method in presence of 5% laked sheep blood
[6] = tested on: Prevotella melaninogenica; test: Antimicrobial activity against Prevotella melaninogenica JCM 6325 by agar dilution method in presence of 5% laked sheep blood; details: ATCC 25845
Bacteroides caccae = test: Antimicrobial activity against Bacteroides caccae by agar dilution method in presence of 5% laked sheep blood
Fusobacterium mortiferum = test: Antimicrobial activity against Fusobacterium mortiferum by agar dilution method in presence of 5% laked sheep blood
Parvimonas micra = test: Antimicrobial activity against Parvimonas micra by agar dilution method in presence of 5% laked sheep blood
Bacteroides fragilis [7] = test: Antimicrobial activity against Bacteroides fragilis GAI 5562 by agar dilution method in presence of 5% laked sheep blood
Porphyromonas gingivalis [8] = test: Antimicrobial activity against Porphyromonas gingivalis by agar dilution method in presence of 5% laked sheep blood
[9] = tested on: Peptoniphilus asaccharolyticus; test: Antimicrobial activity against Peptoniphilus asaccharolyticus WAL 3218 by agar dilution method in presence of 5% laked sheep blood
Anaerococcus prevotii = test: Antimicrobial activity against Anaerococcus prevotii ATCC 9321 by agar dilution method in presence of 5% laked sheep blood
Fusobacterium varium = test: Antimicrobial activity against Fusobacterium varium by agar dilution method in presence of 5% laked sheep blood
Phocaeicola vulgatus = test: Antimicrobial activity against Bacteroides vulgatus GAI 0673 by agar dilution method in presence of 5% laked sheep blood
[10] = tested on: Fusobacterium necrophorum; test: Antimicrobial activity against Fusobacterium necrophorum by agar dilution method in presence of 5% laked sheep blood
[11] = Antimicrobial activity against Bifidobacterium adolescentis ATCC 15703 by agar dilution method in presence of 5% laked sheep blood
Atopobium parvulum = test: Antimicrobial activity against Atopobium parvulum VPI 0546 by agar dilution method in presence of 5% laked sheep blood; details: Lancefieldella parvula
Peptoniphilus indolicus = test: Antimicrobial activity against Peptoniphilus indolicus GAI 0915 by agar dilution method in presence of 5% laked sheep blood
[12] = tested on: Peptostreptococcus anaerobius; test: Antimicrobial activity against Peptostreptococcus anaerobius ATCC 27337 by agar dilution method in presence of 5% laked sheep blood
[13] = Antimicrobial activity against Veillonella dispar ATCC 17748 by agar dilution method in presence of 5% laked sheep blood
[14] = tested on: Peptostreptococcus anaerobius; test: Antimicrobial activity against Peptostreptococcus anaerobius by agar dilution method in presence of 5% laked sheep blood
Bacteroides stercoris = test: Antimicrobial activity against Bacteroides stercoris by agar dilution method in presence of 5% laked sheep blood
Eggerthella lenta = test: Antimicrobial activity against Eggerthella lenta by agar dilution method in presence of 5% laked sheep blood
Fusobacterium nucleatum [15] = test: Antimicrobial activity against Fusobacterium nucleatum by agar dilution method in presence of 5% laked sheep blood
[16] = tested on: Peptoniphilus asaccharolyticus; test: Antimicrobial activity against Peptoniphilus asaccharolyticus by agar dilution method in presence of 5% laked sheep blood
Fusobacterium nucleatum [17] = test: Antimicrobial activity against Fusobacterium nucleatum ATCC 25586 by agar dilution method in presence of 5% laked sheep blood
Porphyromonas gingivalis [18] = test: Antimicrobial activity against Porphyromonas gingivalis ATCC 33277 by agar dilution method in presence of 5% laked sheep blood
Bacteroides uniformis = test: Antimicrobial activity against Bacteroides uniformis by agar dilution method in presence of 5% laked sheep blood
Prevotella buccae = test: Antimicrobial activity against Prevotella buccae ATCC 33574 by agar dilution method in presence of 5% laked sheep blood; details: Segatella buccae
[19] = tested on: Bifidobacterium pseudolongum; test: Antimicrobial activity against Bifidobacterium pseudolongum ATCC 25526 by agar dilution method in presence of 5% laked sheep blood
Bacteroides fragilis [20] = test: Antimicrobial activity against carbapenemase-producing Bacteroides fragilis GAI 30079 by agar dilution method in presence of 5% laked sheep blood
Clostridioides difficile = test: Antimicrobial activity against Clostridium difficile by agar dilution method in presence of 5% laked sheep blood
Clostridium perfringens [21] = test: Antimicrobial activity against Clostridium perfringens by agar dilution method in presence of 5% laked sheep blood
[22] = tested on: Bacteroides thetaiotaomicron; test: Antimicrobial activity against Bacteroides thetaiotaomicron by agar dilution method in presence of 5% laked sheep blood
[23] = Antimicrobial activity against Finegoldia magna ATCC 29328 by agar dilution method in presence of 5% laked sheep blood
[24] = tested on: Porphyromonas asaccharolytica; test: Antimicrobial activity against Porphyromonas asaccharolyticus ATCC 25260 by agar dilution method in presence of 5% laked sheep blood; details: DSM 20707
[25] = tested on: Porphyromonas asaccharolytica; test: Antimicrobial activity against Porphyromonas asaccharolyticus by agar dilution method in presence of 5% laked sheep blood
Clostridium perfringens [26] = test: Antimicrobial activity against Clostridium perfringens ATCC 13124 by agar dilution method in presence of 5% laked sheep blood
Prevotella intermedia = test: Antimicrobial activity against Prevotella intermedia by agar dilution method in presence of 5% laked sheep blood

Cc1ncc([N+](=O)[O-])n1CCO [METRONIDAZOLE]
MIC50 [1]: 1 µg/mL | MIC90 [1]: 2 µg/mL | MIC [2]: 1 µg/mL | MIC [3]: 1 µg/mL | MIC [4]: > 128 µg/mL | MIC50 (Porphyromonas uenonis): 0.06 µg/mL | MIC90 (Porphyromonas uenonis): 0.25 µg/mL | MIC50 (Fusobacterium sp.): ≤ 0.015 µg/mL | MIC90 (Fusobacterium sp.): 0.5 µg/mL | MIC (Bacteroides fragilis [5]): 0.5 µg/mL | MIC (Lactobacillus brevis): > 128 µg/mL | MIC50 (Odoribacter splanchnicus): 0.5 µg/mL | MIC90 (Odoribacter splanchnicus): 1 µg/mL | MIC [6]: 1 µg/mL | MIC50 (Bacteroides caccae): 0.5 µg/mL | MIC90 (Bacteroides caccae): 1 µg/mL | MIC50 (Fusobacterium mortiferum): ≤ 0.015 µg/mL | MIC90 (Fusobacterium mortiferum): 0.5 µg/mL | MIC50 (Parvimonas micra): 0.5 µg/mL | MIC90 (Parvimonas micra): 1 µg/mL | MIC (Bacteroides fragilis [7]): 1 µg/mL | MIC50 (Porphyromonas gingivalis [8]): 0.06 µg/mL | MIC90 (Porphyromonas gingivalis [8]): 0.25 µg/mL | MIC [9]: 1 µg/mL | MIC (Anaerococcus prevotii): 2 µg/mL | MIC50 (Fusobacterium varium): ≤ 0.015 µg/mL | MIC90 (Fusobacterium varium): 0.5 µg/mL | MIC (Phocaeicola vulgatus): 0.25 µg/mL | MIC50 [10]: ≤ 0.015 µg/mL | MIC90 [10]: 0.5 µg/mL | MIC [11]: 64 µg/mL | MIC (Atopobium parvulum): 0.5 µg/mL | MIC (Peptoniphilus indolicus): 0.5 µg/mL | MIC [12]: 0.125 µg/mL | MIC [13]: 2 µg/mL | MIC50 [14]: 0.125 µg/mL | MIC90 [14]: 0.5 µg/mL | MIC50 (Bacteroides stercoris): 0.5 µg/mL | MIC90 (Bacteroides stercoris): 1 µg/mL | MIC50 (Eggerthella lenta): 0.5 µg/mL | MIC90 (Eggerthella lenta): 0.5 µg/mL | MIC50 (Fusobacterium nucleatum [15]): ≤ 0.015 µg/mL | MIC90 (Fusobacterium nucleatum [15]): 0.5 µg/mL | MIC50 [16]: 1 µg/mL | MIC90 [16]: 2 µg/mL | MIC (Fusobacterium nucleatum [17]): ≤ 0.015 µg/mL | MIC (Porphyromonas gingivalis [18]): 0.03 µg/mL | MIC50 (Bacteroides uniformis): 0.5 µg/mL | MIC90 (Bacteroides uniformis): 1 µg/mL | MIC (Prevotella buccae): 0.5 µg/mL | MIC [19]: > 128 µg/mL | MIC (Bacteroides fragilis [20]): 1 µg/mL | MIC50 (Clostridioides difficile): 1 µg/mL | MIC90 (Clostridioides difficile): 1 µg/mL | MIC50 (Clostridium perfringens [21]): 1 µg/mL | MIC90 (Clostridium perfringens [21]): 2 µg/mL | MIC50 [22]: 0.5 µg/mL | MIC90 [22]: 2 µg/mL | MIC [23]: 1 µg/mL | MIC [24]: 0.25 µg/mL | MIC50 [25]: 0.06 µg/mL | MIC90 [25]: 0.25 µg/mL | MIC (Clostridium perfringens [26]): 1 µg/mL | MIC50 (Prevotella intermedia): 0.5 µg/mL | MIC90 (Prevotella intermedia): 0.5 µg/mL

C[C@@H](O)[C@H]1C(=O)N2C(C(=O)O)=C(S[C@H]3C[C@@H](C(=O)N4CC[C@H](NC(=O)CNC(=N)N)C4)N(C)C3)[C@H](C)[C@H]12 [TOMOPENEM]
MIC50 [1]: 0.125 µg/mL | MIC90 [1]: 0.5 µg/mL | MIC [2]: ≤ 0.015 µg/mL | MIC [3]: 0.5 µg/mL | MIC [4]: 0.125 µg/mL | MIC50 (Porphyromonas uenonis): 0.03 µg/mL | MIC90 (Porphyromonas uenonis): 0.06 µg/mL | MIC50 (Fusobacterium sp.): ≤ 0.015 µg/mL | MIC90 (Fusobacterium sp.): 0.5 µg/mL | MIC (Bacteroides fragilis [5]): 0.25 µg/mL | MIC (Lactobacillus brevis): 0.25 µg/mL | MIC50 (Odoribacter splanchnicus): 0.5 µg/mL | MIC90 (Odoribacter splanchnicus): 4 µg/mL | MIC [6]: 0.125 µg/mL | MIC50 (Bacteroides caccae): 0.5 µg/mL | MIC90 (Bacteroides caccae): 4 µg/mL | MIC50 (Fusobacterium mortiferum): ≤ 0.015 µg/mL | MIC90 (Fusobacterium mortiferum): 0.5 µg/mL | MIC50 (Parvimonas micra): 0.125 µg/mL | MIC90 (Parvimonas micra): 0.125 µg/mL | MIC (Bacteroides fragilis [7]): 0.25 µg/mL | MIC50 (Porphyromonas gingivalis [8]): 0.03 µg/mL | MIC90 (Porphyromonas gingivalis [8]): 0.06 µg/mL | MIC [9]: 0.03 µg/mL | MIC (Anaerococcus prevotii): 0.125 µg/mL | MIC50 (Fusobacterium varium): ≤ 0.015 µg/mL | MIC90 (Fusobacterium varium): 0.5 µg/mL | MIC (Phocaeicola vulgatus): 0.25 µg/mL | MIC50 [10]: ≤ 0.015 µg/mL | MIC90 [10]: 0.5 µg/mL | MIC [11]: 0.125 µg/mL | MIC (Atopobium parvulum): 0.5 µg/mL | MIC (Peptoniphilus indolicus): ≤ 0.015 µg/mL | MIC [12]: 0.5 µg/mL | MIC [13]: 0.03 µg/mL | MIC50 [14]: 0.5 µg/mL | MIC90 [14]: 4 µg/mL | MIC50 (Bacteroides stercoris): 0.5 µg/mL | MIC90 (Bacteroides stercoris): 4 µg/mL | MIC50 (Eggerthella lenta): 0.5 µg/mL | MIC90 (Eggerthella lenta): 0.5 µg/mL | MIC50 (Fusobacterium nucleatum [15]): ≤ 0.015 µg/mL | MIC90 (Fusobacterium nucleatum [15]): 0.5 µg/mL | MIC50 [16]: ≤ 0.015 µg/mL | MIC90 [16]: 0.06 µg/mL | MIC (Fusobacterium nucleatum [17]): 2 µg/mL | MIC (Porphyromonas gingivalis [18]): 0.03 µg/mL | MIC50 (Bacteroides uniformis): 0.5 µg/mL | MIC90 (Bacteroides uniformis): 4 µg/mL | MIC (Prevotella buccae): 0.25 µg/mL | MIC [19]: 0.125 µg/mL | MIC (Bacteroides fragilis [20]): > 128 µg/mL | MIC50 (Clostridioides difficile): 1 µg/mL | MIC90 (Clostridioides difficile): 2 µg/mL | MIC50 (Clostridium perfringens [21]): ≤ 0.015 µg/mL | MIC90 (Clostridium perfringens [21]): 0.06 µg/mL | MIC50 [22]: 0.5 µg/mL | MIC90 [22]: 2 µg/mL | MIC [23]: 0.125 µg/mL | MIC [24]: ≤ 0.015 µg/mL | MIC50 [25]: 0.03 µg/mL | MIC90 [25]: 0.06 µg/mL | MIC (Clostridium perfringens [26]): 0.03 µg/mL | MIC50 (Prevotella intermedia): 0.06 µg/mL | MIC90 (Prevotella intermedia): 0.125 µg/mL

Source: ChEMBL document CHEMBL1275576, “In vitro activity of tomopenem (CS-023/RO4908463) against anaerobic bacteria” (Antimicrob Agents Chemother, 2009)
